Results reported in patent US20240299354A1, “COMPOSITIONS AND METHODS FOR TREATING CANCER” (The Regents of the University of Michigan, priority 2021, published 2024).

What was measured:
tumor cells [1] = conditions: reference 46; cited from earlier work
T47D cells = experiment: perforin and granzyme B-induced tumor cell death; type: cell-based, human; conditions: FOXO1 knocked down T47D cells, FIG. 4h
Protocol: Tumor cells were exposed to hypoxia for 24 hours, or the indicated conditions. Then, tumor cells were co-incubated with perform (APB317Hu01, Cloud-Clone) and granzyme B (2906-SE-010, R&D system) for 10 minutes. PI (10 μg/ml) was added into the culture. PI^+ cells were measured by flow cytometry.

tumor cells [2] = experiment: tumor receptivity to CTL-killing in vitro; type: cell-based; conditions: FIG. 9g as printed
4T1 tumors [3] = experiment: therapeutic experiments in 4T1 tumor bearing BALB/cJ mice (tumor volume, tumor weight); type: in vivo, mouse; conditions: anti-PD-L1 and combination experiment
Protocol: Six to eight week-old female BALB/cJ mice were purchased from The Jackson Laboratory. The work was approved by the Institutional Animal Care and Use Committee at the University of Michigan. Slc6a14^−/− and Slc6a14^+/+ 4T1 tumor cells were inoculated into the fourth right mammary fat pad of BALB/cJ mice. Tumor size was measured every three days using calipers fitted with Vernier scale. Tumor volume (TV) was calculated using the formula: TV=0.5×L×W^2. In some cases, single cell suspensions were made from spleen and tumor tissues for immune phenotype and function analysis.
(§1) For the therapeutic experiments, 2*10^4 4T1 cells were inoculated into the fourth right mammary fat pad of BALB/cJ mice. On day 3, mice were treated (i.p.) with 200 μg of anti-PD-L1 (Bio X Cell) every 3 days, and/or with 250 μg of 4-HAP (i.p., 278564, Sigma) every other day, and/or α-MT (2 mg/mL, M8377, Sigma) in drinking water. Tumor diameters were measured using calipers.

4T1 cells = experiment: 4T1 cell stiffness in vitro, Optical Tweezers Microscopy; type: cell-based, mouse; conditions: FIG. 8c
Protocol: OTM was established to measure tumor cell stiffness. A modular OTM (Thorlabs—OKBT) was adapted for axial cell indentation and force measurement. Briefly, a collimated laser beam (YLM-5-IPG Photonics—Yb fiber laser 1064 nm) was focused through a 100× objective (Nikon, N.A.=1.25, oil immersion) to produce a stable optical trap for 3 μm diameter silica microbeads (Bangs Laboratories) dispersed in the medium. During data acquisition, the cells were maintained at 37° C. by an integrated temperature controller unit (RS Components). The sample was imaged through the trapping objective and a tube lens by a CMOS camera (Thorlabs—DCC1240C). A microbead probe was individually trapped and positioned above the cell nucleus area of a selected cell using a piezoelectric NanoMax 3-axis flexure stage (Thorlabs). The position of the microbead in the trap was tracked by back focal plane interferometry method using the laser light scattered by the trapped bead. The trap height was in the range 3-6 μm from the cover-slip. The trap stiffness was calculated using the equipartition theorem and the power spectrum density methods considering the stiffness variations due to spherical aberrations and neighborhood of the cover-slip. […] Tumor cell stiffness was determined and expressed as […] per site. At least 15 cells per condition were analyzed.

4T1 tumors [4] = experiment: tumor stiffness in vivo by atomic force microscopy; set-up: species or system mouse; conditions: FIG. 5f
Protocol: as §1
AFM was used to measure tumor tissue stiffness in vivo. MFP-3D AFM (Asylum Research, Santa Barbara, CA) combined with a Nikon Ti inverted optical microscope (Nikon, Melville, NY) was used to optically align the probe to the cells. The probes used in this study were MCST-AUHW (Bruker, Camarillo, CA) with a nominal spring constant of 0.03 N/m. […] To eliminate the confounding effects of neighboring cells on cytoskeleton arrangement and morphology, single cells were measured.
For in vivo tumor cell stiffness detection, fresh tumor tissues were excised and prepared immediately as frozen slices. […] The deflection sensitivity was determined in fluid using glass substrates as an infinitely stiff reference material. AFM at room temperature involved recording up to 6×6 point grids (36 force-displacement curves per map) was recorded. […] Force curves were analyzed using the Oliver and Pharr method. Tumor stiffness was determined and expressed as log 10 (pascal) per site. At least 24 sites per tumor tissue were analyzed.

4T1 tumors [5] = experiment: Myh9 and Mylk expression in 4T1 tumors of treated mice (real-time PCR, immunoblots); set-up: species or system mouse; conditions: in vivo, α-MT in drinking water
Protocol: as §1
Total RNA was extracted using TRIzol™ Reagent (ThermoFisher Scientific, USA). RNA was quantified by using NanoDrop spectrophotometer. Reverse transcription of the total cellular RNA was carried out using oligo (dT) primers and M-MLV reverse transcriptase (ThermoFisher Scientific, USA). RT-PCR primers are listed (Table 6). PCR was performed using QuantStudio 3 Real-time PCR system (Appliedbiosystems, Thermo Fisher Scientific, USA).
Cell lysates were prepared in RIPA buffer (Thermo Fisher Scientific, USA). The protein concentrations of cell lysates were determined by BCA protein assay kit (Thermo Scientific, USA). Equivalent amounts of total cellular protein were separated by SDS PAGE and transferred to PVDF membranes. The proteins were detected with specific antibodies (Table 7) and developed using ChemiDoc™ Imaging System (Bio-Rad, USA).

SLC6A14 = molecular target: T1, SLC6A14 (Homo sapiens, UniProt Q9UN76); conditions: reference 41; cited from earlier work
T1 sequence (Q9UN76 1-642): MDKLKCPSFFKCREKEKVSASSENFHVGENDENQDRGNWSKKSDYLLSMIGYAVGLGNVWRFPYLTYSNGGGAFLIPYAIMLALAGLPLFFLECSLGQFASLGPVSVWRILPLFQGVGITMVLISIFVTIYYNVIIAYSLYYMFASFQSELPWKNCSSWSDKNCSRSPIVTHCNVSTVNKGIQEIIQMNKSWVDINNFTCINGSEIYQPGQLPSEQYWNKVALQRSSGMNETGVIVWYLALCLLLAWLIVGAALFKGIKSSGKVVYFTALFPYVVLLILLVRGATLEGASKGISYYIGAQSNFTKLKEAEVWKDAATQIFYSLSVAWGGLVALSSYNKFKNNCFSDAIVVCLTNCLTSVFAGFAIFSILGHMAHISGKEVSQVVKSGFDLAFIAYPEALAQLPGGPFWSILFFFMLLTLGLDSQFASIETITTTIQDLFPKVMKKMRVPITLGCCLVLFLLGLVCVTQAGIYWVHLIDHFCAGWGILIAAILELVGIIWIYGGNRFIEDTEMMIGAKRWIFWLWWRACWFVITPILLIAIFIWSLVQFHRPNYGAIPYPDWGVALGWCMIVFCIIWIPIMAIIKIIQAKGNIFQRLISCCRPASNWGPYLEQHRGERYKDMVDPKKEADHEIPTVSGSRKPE

Row | SMILES | stiffening of tumor cells (tumor cells [1]) | perforin and granzyme B-induced T47D cell death (T47D cells) | tumor receptivity to CTL-killing (tumor cells [2]) | 4T1 tumor progression / tumor growth (4T1 tumors [3]; 4-HAP, tumor weights and volume, FIG. 5k-l) | 4T1 cell stiffness (4T1 cells) | 4T1 tumor cell stiffness in vivo (4T1 tumors [4]) | levels of Myh9 and Mylk proteins in 4T1 tumors (4T1 tumors [5]; immunoblots, FIG. 5e) | levels of Myh9 and Mylk transcripts in 4T1 tumors (4T1 tumors [5]; real-time PCR, FIG. 5d) | 4T1 tumor progression / tumor growth (4T1 tumors [3]; α-MT, tumor volumes and weight, FIG. 5i-j) | inhibition of SLC6A14 (SLC6A14)
1 | CC(=O)c1ccc(O)cc1 [4-HAP, 4′-Hydroxyacetophenone] | can stiffen tumor cells | rescued | promote | partially slowed down |  |  |  |  |  | 
2 | CC(N)(Cc1c[nH]c2ccccc12)C(=O)O (racemic) [α-MT, α-methyl-DL-tryptophan] |  |  |  |  | enhanced | increased | reduced levels | reduced levels | partially and similarly slowed down | functionally inhibits
